Experimental data as given in ChEMBL document CHEMBL1201862, “PubChem BioAssay data set” (2004).
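These data come from cells grown in 96-well plates and exposed to compound for 48 hours at five concentrations. The concentration for 50% growth inhibition is given as GI50.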 The source made the active and inactive calls. No stated cut-off is given here; in the data, active = GI50 up to about 1.1 µM and inactive = higher.

Experiments:
Assay in all cases: DTP human tumour cell line panel, 48 h
Malme-3M = test system: Malme-3M
NCI-H226 = test system: NCI-H226
T47D = test system: T47D
ACHN = test system: ACHN
OVCAR-3 = test system: OVCAR-3
NCI-H460 = test system: NCI-H460
MDA-MB-435 = test system: MDA-MB-435
HL-60 = test system: HL-60
UACC-62 = test system: UACC-62
HOP-92 = test system: HOP-92
SNB-75 = test system: SNB-75
SK-MEL-5 = test system: SK-MEL-5
UACC-257 = test system: UACC-257
SF-295 = test system: SF-295
SN12C = test system: SN12C
SNB-19 = test system: SNB-19
SF-268 = test system: SF-268
KM12 = test system: KM12
SF-539 = test system: SF-539

Structure (SMILES)	GI50 (Malme-3M)	GI50 (NCI-H226)	GI50 (T47D)	GI50 (ACHN)	GI50 (OVCAR-3)	GI50 (NCI-H460)	GI50 (MDA-MB-435)	GI50 (HL-60)	GI50 (UACC-62)	GI50 (HOP-92)	GI50 (SNB-75)	GI50 (SK-MEL-5)	GI50 (UACC-257)	GI50 (SF-295)	GI50 (SN12C)	GI50 (SNB-19)	GI50 (SF-268)	GI50 (KM12)	GI50 (SF-539)
Nn1nnc2ccccc21	> 100 µM (inactive)	> 100 µM (inactive)	> 100 µM (inactive)	> 100 µM (inactive)	> 100 µM (inactive)	> 100 µM (inactive)	> 100 µM (inactive)	> 100 µM (inactive)	> 100 µM (inactive)	> 100 µM (inactive)	> 100 µM (inactive)	> 100 µM (inactive)	> 100 µM (inactive)	> 100 µM (inactive)	> 100 µM (inactive)	> 100 µM (inactive)	> 100 µM (inactive)	–	–
CCCCCCCCCC(=O)OCC1(CO)C/C(=C/CC(C(C)C)C(C)C)C(=O)O1 (configuration not stated)	23 µM (inactive)	74.5 µM (inactive)	58.3 µM (inactive)	71.1 µM (inactive)	> 100 µM (inactive)	23.5 µM (inactive)	31.6 µM (inactive)	–	49.2 µM (inactive)	> 100 µM (inactive)	78 µM (inactive)	25.7 µM (inactive)	> 100 µM (inactive)	42.4 µM (inactive)	51.9 µM (inactive)	32.6 µM (inactive)	> 100 µM (inactive)	10.2 µM (inactive)	–
N#CCc1nc(-c2cc3ccccc3oc2=O)cs1	65.8 µM (inactive)	36.8 µM (inactive)	40.1 µM (inactive)	42.5 µM (inactive)	–	75.2 µM (inactive)	44.6 µM (inactive)	17.5 µM (inactive)	18.7 µM (inactive)	41.7 µM (inactive)	19.1 µM (inactive)	26.4 µM (inactive)	27.1 µM (inactive)	72.6 µM (inactive)	> 100 µM (inactive)	> 100 µM (inactive)	> 100 µM (inactive)	26.7 µM (inactive)	83.9 µM (inactive)
CN(C(=O)c1cccs1)C(=S)N1CCN(c2ccccc2)CC1	> 100 µM (inactive)	> 100 µM (inactive)	> 100 µM (inactive)	> 100 µM (inactive)	> 100 µM (inactive)	> 100 µM (inactive)	> 100 µM (inactive)	68.5 µM (inactive)	> 100 µM (inactive)	91.8 µM (inactive)	> 100 µM (inactive)	> 100 µM (inactive)	> 100 µM (inactive)	> 100 µM (inactive)	> 100 µM (inactive)	> 100 µM (inactive)	> 100 µM (inactive)	> 100 µM (inactive)	–
CCC1CCC2c3c([nH]c4ccc(C)cc34)C3C(=O)N(N(C)C)C(=O)C3C2C1 (configuration not stated)	1.02 µM (active)	> 72.4 µM (inactive)	7.93 µM (inactive)	91.2 µM (inactive)	0.787 µM (active)	7.45 µM (inactive)	1.37 µM (inactive)	3.05 µM (inactive)	17.6 µM (inactive)	38.7 µM (inactive)	–	12.8 µM (inactive)	5.64 µM (inactive)	5.11 µM (inactive)	17.9 µM (inactive)	16.9 µM (inactive)	7.62 µM (inactive)	6.52 µM (inactive)	18.2 µM (inactive)
Brc1ccc(/N=N/c2ccc3ccccc3n2)cc1	12.8 µM (inactive)	10.6 µM (inactive)	22.2 µM (inactive)	13.5 µM (inactive)	–	7.5 µM (inactive)	64.3 µM (inactive)	18.7 µM (inactive)	15.6 µM (inactive)	33.2 µM (inactive)	14.2 µM (inactive)	20.7 µM (inactive)	82.8 µM (inactive)	24.8 µM (inactive)	40.4 µM (inactive)	15.9 µM (inactive)	22.3 µM (inactive)	62.2 µM (inactive)	22.2 µM (inactive)
O=C(Nc1ccc(Cl)cc1)c1cc2c(cc1Cl)SC(NNCCO)=NS2(=O)=O	–	> 100 µM (inactive)	24.8 µM (inactive)	> 100 µM (inactive)	–	> 100 µM (inactive)	> 100 µM (inactive)	> 100 µM (inactive)	> 100 µM (inactive)	92.3 µM (inactive)	> 100 µM (inactive)	> 100 µM (inactive)	> 100 µM (inactive)	> 100 µM (inactive)	–	> 100 µM (inactive)	> 100 µM (inactive)	> 100 µM (inactive)	> 100 µM (inactive)
CC(CO)(CBr)COC(=O)c1cc(Br)c(N)c(Br)c1 (configuration not stated)	–	> 100 µM (inactive)	> 100 µM (inactive)	73.8 µM (inactive)	> 100 µM (inactive)	–	98.9 µM (inactive)	> 100 µM (inactive)	> 100 µM (inactive)	20.4 µM (inactive)	–	> 100 µM (inactive)	> 100 µM (inactive)	37.4 µM (inactive)	> 100 µM (inactive)	54.7 µM (inactive)	29.3 µM (inactive)	> 100 µM (inactive)	> 100 µM (inactive)
Cn1c(=O)c2[nH]c(-n3nc(-c4ccccc4)cc3N)nc2n(C)c1=O	13.7 µM (inactive)	5.55 µM (inactive)	11.3 µM (inactive)	3.66 µM (inactive)	5.35 µM (inactive)	3.3 µM (inactive)	18 µM (inactive)	12 µM (inactive)	6.37 µM (inactive)	6.46 µM (inactive)	–	5.38 µM (inactive)	–	4.92 µM (inactive)	4.6 µM (inactive)	–	11.3 µM (inactive)	6.58 µM (inactive)	5.08 µM (inactive)
Cc1n[nH]c(=O)c2c3c([nH]c12)-c1ccccc1C3	> 100 µM (inactive)	51.1 µM (inactive)	23.5 µM (inactive)	> 100 µM (inactive)	> 100 µM (inactive)	> 100 µM (inactive)	> 100 µM (inactive)	–	–	> 100 µM (inactive)	18.7 µM (inactive)	> 100 µM (inactive)	19.5 µM (inactive)	> 100 µM (inactive)	> 100 µM (inactive)	> 100 µM (inactive)	> 100 µM (inactive)	> 100 µM (inactive)	> 100 µM (inactive)
COc1ccc(/C=C/C(=O)N[C@@H]2C(=O)N3[C@@H]2SC(C)(C)[C@@H]3C(=O)O)cc1	–	> 100 µM (inactive)	> 100 µM (inactive)	> 100 µM (inactive)	> 100 µM (inactive)	> 100 µM (inactive)	> 100 µM (inactive)	> 100 µM (inactive)	> 100 µM (inactive)	47.8 µM (inactive)	> 100 µM (inactive)	> 100 µM (inactive)	> 100 µM (inactive)	> 100 µM (inactive)	> 100 µM (inactive)	> 100 µM (inactive)	> 100 µM (inactive)	> 100 µM (inactive)	> 100 µM (inactive)
CCCC(=O)OC1=C(c2ccccc2)Sc2ccccc2-n2cccc21	> 10 µM (inactive)	–	> 10 µM (inactive)	–	–	–	8.57 µM (inactive)	> 10 µM (inactive)	> 10 µM (inactive)	> 10 µM (inactive)	> 10 µM (inactive)	> 10 µM (inactive)	> 10 µM (inactive)	> 10 µM (inactive)	> 10 µM (inactive)	–	> 10 µM (inactive)	> 10 µM (inactive)	–
